Test results: DBAASP
≈ marks a conversion by molar mass, not a printed value. Where “and” joins values, the source holds several entries; their conditions need not be identical. Identical values can stand only once.

Columns and labels:
Experiment in all cases: ≥ marks a high value that may be exact or a test limit, other limits are often not marked, values filed in µg/mL are converted to µM
[1] = test system: Escherichia coli ATCC 25922
[2] = test system: Staphylococcus aureus ATCC 25923
[3] = test system: Staphylococcus aureus ATCC 29213
Staphylococcus aureus = test system: Staphylococcus aureus
Escherichia coli = test system: Escherichia coli
[4] = test system: Pseudomonas aeruginosa ATCC 27853
Pseudomonas aeruginosa = test system: Pseudomonas aeruginosa

SMILES	MIC [1]	MIC [2]	MIC [4]	also measured
CC(C)C[C@H](NC(=O)CNC(=O)[C@H](CCCCN)NC(=O)CNC(=O)[C@H](C)NC(=O)[C@H](C)N)C(=O)N[C@H](C(=O)N[C@@H](CO)C(=O)N[C@@H](CC(N)=O)C(=O)N[C@@H](CC(C)C)C(=O)N[C@@H](CC(C)C)C(=O)N[C@@H](CCC(=O)O)C(=O)N[C@@H](CCCCN)C(N)=O)C(C)C [AAGKGLVSNLLEK]	24.6 µM (≈ 31.9 µg/mL)	49 µM (≈ 63.6 µg/mL)	–	–
CC[C@H](C)[C@H](NC(=O)[C@@H](N)Cc1ccccc1)C(=O)N[C@@H](CCCN=C(N)N)C(=O)N[C@@H](CO)C(=O)N[C@@H](CC(C)C)C(=O)N[C@@H](Cc1ccccc1)C(=O)N[C@@H](Cc1ccccc1)C(=O)N[C@@H](Cc1ccccc1)C(N)=O [FIRSLFFF]	> 100 µM	> 100 µM	–	–
CC[C@H](C)[C@H](NC(=O)[C@H](CCCN=C(N)N)NC(=O)[C@H](CCC(N)=O)NC(=O)[C@@H](NC(=O)CNC(=O)[C@H](CCCN=C(N)N)NC(=O)[C@H](CCCCN)NC(=O)[C@@H](N)Cc1ccccc1)C(C)C)C(=O)N[C@@H](CCCCN)C(=O)N[C@@H](CC(=O)O)C(=O)N[C@@H](Cc1ccccc1)C(=O)N[C@@H](CC(C)C)C(=O)N[C@@H](CCCN=C(N)N)C(=O)O [FKRGVQRIKDFLR]	10 µM (≈ 16.6 µg/mL)	–	–	MIC [3]: > 40 µM
CC(C)C[C@H](NC(=O)[C@H](CC(C)C)NC(=O)[C@H](CCCCN)NC(=O)[C@H](CCCCN)NC(=O)[C@H](CC(C)C)NC(=O)[C@H](Cc1ccccc1)NC(=O)[C@H](CCCCN)NC(=O)[C@H](CC(C)C)NC(=O)[C@@H](N)Cc1ccccc1)C(N)=O [FLKFLKKLL]	13.9 µM and 27.8 µM	–	–	–
CC[C@H](C)[C@H](NC(=O)[C@H](CCCCN)NC(=O)[C@H](CC(C)C)NC(=O)[C@@H](N)Cc1ccccc1)C(=O)N[C@@H](CC(C)C)C(=O)N[C@@H](CCCCN)C(=O)N[C@@H](CCCCN)C(=O)N[C@@H](CC(C)C)C(=O)N[C@@H](CC(C)C)C(N)=O [FLKILKKLL]	–	14.3 µM (≈ 16 µg/mL)	–	–
CC[C@H](C)[C@H](NC(=O)[C@@H]1CCCN1C(=O)[C@H](CC(C)C)NC(=O)[C@@H](N)Cc1ccccc1)C(=O)N[C@@H](C)C(=O)N[C@@H](CO)C(=O)N[C@@H](CC(C)C)C(=O)N[C@@H](CC(C)C)C(=O)NCC(=O)N[C@@H](CCCCN)C(=O)N[C@@H](Cc1ccc(O)cc1)C(=O)N[C@@H](CC(C)C)C(=O)O [FLPIASLLGKYL]	–	–	–	MIC (Staphylococcus aureus): > 200 µM
CC(C)[C@H](NC(=O)[C@H](CCCN=C(N)N)NC(=O)[C@@H](N)Cc1ccccc1)C(=O)N[C@H](C(=O)N[C@@H](Cc1c[nH]c2ccccc12)C(=O)N[C@@H](CCCN=C(N)N)C(=O)N[C@H](C(=O)N[C@@H](CCCCN)C(=O)N[C@@H](Cc1c[nH]c2ccccc12)C(=O)N[C@@H](Cc1c[nH]c2ccccc12)C(=O)N[C@@H](CCCCN)C(=O)NCC(N)=O)[C@@H](C)O)[C@@H](C)O [FRVTWRTKWWKG]	6 µM (≈ 9.9 µg/mL)	3 µM (≈ 4.95 µg/mL)	–	–
CC[C@H](C)[C@H](NC(=O)CN)C(=O)NCC(=O)N[C@@H](C)C(=O)N[C@H](C(=O)N[C@@H](CC(C)C)C(=O)N[C@@H](CCCCN)C(=O)N[C@H](C(=O)N[C@@H](CC(C)C)C(=O)N[C@@H](C)C(=O)N[C@@H](CC(C)C)C(=O)N[C@H](C(=O)N[C@@H](CO)C(=O)N[C@@H](Cc1c[nH]c2ccccc12)C(=O)N[C@H](C(=O)N[C@@H](CCCCN)C(=O)N[C@@H](CCCN=C(N)N)C(=O)N[C@@H](CCCCN)C(=O)N[C@@H](CCCN=C(N)N)C(N)=O)[C@@H](C)CC)[C@@H](C)CC)C(C)C)C(C)C [GIGAVLKVLALISWIKRKR]	–	5.6 µM (≈ 11.9 µg/mL)	11.2 µM (≈ 23.9 µg/mL)	MIC (Escherichia coli): 11.2 µM (≈ 23.9 µg/mL)
NCC(=O)N[C@@H](CCCN=C(N)N)C(=O)N[C@@H](CCCN=C(N)N)C(=O)N1CCC[C@H]1C(=O)N[C@@H](CCCN=C(N)N)C(=O)N1CCC[C@H]1C(=O)N[C@@H](CCCN=C(N)N)C(=O)N1CCC[C@H]1C(=O)N[C@@H](CCCN=C(N)N)C(=O)N1CCC[C@H]1C(=O)N[C@@H](Cc1ccccc1)C(=O)N[C@@H](Cc1ccccc1)C(=O)N[C@@H](Cc1ccccc1)C(=O)N[C@@H](Cc1ccccc1)C(=O)O [GRRPRPRPRPFFFF]	160 µM (≈ 293 µg/mL)	–	80 µM (≈ 147 µg/mL)	MIC [3]: 40 µM (≈ 73.3 µg/mL)
CC[C@H](C)[C@H](NC(=O)[C@H](CCCN=C(N)N)NC(=O)[C@@H](N)CCCCN)C(=O)N[C@@H](CCCCN)C(=O)N[C@H](C(=O)N[C@@H](CC(C)C)C(=O)N[C@@H](CC(C)C)C(N)=O)[C@@H](C)O [KRIKTLL]	> 70 µM	> 70 µM	–	–
CC[C@H](C)[C@H](NC(=O)[C@H](Cc1ccccc1)NC(=O)[C@H](CO)NC(=O)[C@H](CCCCN)NC(=O)[C@H](Cc1c[nH]c2ccccc12)NC(=O)[C@@H](N)CCCCN)C(=O)N[C@@H](CCCCN)C(=O)N[C@@H](CCCCN)C(=O)N[C@@H](CC(C)C)C(=O)N[C@@H](C)C(=O)N[C@@H](CO)C(=O)N[C@@H](CCCCN)C(=O)N[C@@H](Cc1ccccc1)C(=O)N[C@@H](CC(C)C)C(=O)N[C@@H](Cc1cnc[nH]1)C(=O)N[C@@H](CO)C(=O)N[C@@H](C)C(=O)N[C@@H](CCCCN)C(=O)N[C@@H](CCCCN)C(=O)N[C@@H](Cc1ccccc1)C(N)=O [KWKSFIKKLASKFLHSAKKF]	–	–	–	MIC (Pseudomonas aeruginosa): 5.16 µM (≈ 12.5 µg/mL)
CC[C@H](C)[C@H](NC(=O)[C@H](CCSC)NC(=O)[C@H](C)NC(=O)[C@@H]1CCCN1C(=O)[C@@H](NC(=O)[C@@H](NC(=O)[C@H](CCCCN)NC(=O)[C@@H](NC(=O)[C@H](CC(C)C)NC(=O)CNC(=O)CNC(=O)[C@@H](N)CC(C)C)[C@@H](C)CC)[C@@H](C)CC)C(C)C)C(=O)N[C@H]1CSSC[C@@H](C(=O)O)NC(=O)[C@H](CCCCN)NC(=O)[C@H](CCCCN)NC(=O)[C@H]([C@@H](C)O)NC(=O)[C@H](C(C)C)NC(=O)[C@H](C)NC1=O [LGGLIKIVPAMICAVTKKC]	131 µM (≈ 256 µg/mL)	–	> 131 µM	MIC [3]: 131 µM (≈ 256 µg/mL)
CC[C@H](C)[C@H](NC(=O)[C@H](CCCCN)NC(=O)[C@H](CCCCN)NC(=O)[C@@H](N)CCC(N)=O)C(=O)N[C@@H](CCCN=C(N)N)C(=O)N[C@H](C(=O)N[C@@H](CCCN=C(N)N)C(=O)N[C@@H](C)C(=O)N[C@@H](CO)C(=O)N[C@@H](C)C(=O)O)C(C)C [QKKIRVRASA]	> 55.3 µM	–	> 55.3 µM	MIC [3]: > 55.3 µM
CC[C@H](C)[C@H](NC(=O)[C@H](CCCCN)NC(=O)[C@H](CCCCN)NC(=O)[C@@H](N)CCC(N)=O)C(=O)N[C@@H](CCCN=C(N)N)C(=O)N[C@H](C(=O)N[C@@H](CCCN=C(N)N)C(=O)N[C@@H](CC(C)C)C(=O)N[C@@H](C)C(=O)N[C@@H](C)C(=O)O)C(C)C [QKKIRVRLAA]	13.5 µM (≈ 16 µg/mL)	–	13.5 µM (≈ 16 µg/mL)	MIC [3]: > 54.1 µM
CC(C)[C@H](NC(=O)[C@H](Cc1c[nH]c2ccccc12)NC(=O)[C@H](C)NC(=O)[C@@H](N)CCCN=C(N)N)C(=O)N[C@@H](C)C(=O)N[C@@H](Cc1c[nH]c2ccccc12)C(=O)N[C@@H](CCCN=C(N)N)C(=O)N[C@@H](CC(N)=O)C(=O)N[C@@H](CCCN=C(N)N)C(N)=O [RAWVAWRNR]	412 µM (≈ 500 µg/mL)	–	–	MIC [3]: 206 µM (≈ 250 µg/mL)
CSCC[C@H](NC(=O)[C@H](CCCCN)NC(=O)[C@H](CCCCN)NC(=O)[C@H](CCCCN)NC(=O)[C@@H](N)CCCN=C(N)N)C(=O)N[C@@H](CCCCN)C(=O)N[C@@H](CCCCN)C(=O)N[C@@H](C)C(=O)N[C@@H](CC(C)C)C(=O)N[C@@H](CCC(N)=O)C(=O)N[C@@H](Cc1ccc(O)cc1)C(N)=O [RKKKMKKALQY]	> 100 µM	–	> 100 µM	–
CC[C@H](C)[C@H](NC(=O)[C@H](CC(C)C)NC(=O)[C@@H](NC(=O)[C@H](CC(C)C)NC(=O)[C@H](CO)NC(=O)[C@H](CCCCN)NC(=O)[C@@H](NC(=O)[C@H](CC(C)C)NC(=O)[C@H](CCCCN)NC(=O)[C@H](CC(C)C)NC(=O)[C@H](CO)NC(=O)[C@H](CCCN=C(N)N)NC(=O)[C@H](CCCCN)NC(=O)[C@@H](NC(=O)[C@H](Cc1ccccc1)NC(=O)[C@@H](N)CO)[C@@H](C)CC)[C@@H](C)CC)C(C)C)C(=O)N[C@@H](CCCCN)C(=O)O [SFIKRSLKLIKSLVLIK]	–	–	–	MIC (Staphylococcus aureus): 4 µM (≈ 7.95 µg/mL)
CC(C)C[C@H](NC(=O)[C@H](Cc1ccccc1)NC(=O)[C@@H]1CCCN1C(=O)[C@H](Cc1c[nH]c2ccccc12)NC(=O)[C@H](Cc1c[nH]c2ccccc12)NC(=O)[C@H](Cc1c[nH]c2ccccc12)NC(=O)[C@@H]1CCCN1C(=O)[C@H](Cc1ccccc1)NC(=O)[C@H](CCCCN)NC(=O)[C@H](CCCCN)NC(=O)[C@@H](N)C(C)C)C(=O)N[C@@H](CCCCN)C(=O)N[C@@H](CCCCN)C(N)=O [VKKFPWWWPFLKK]	16 µM (≈ 28.6 µg/mL)	–	–	MIC (Escherichia coli): 11.2 µM (≈ 20 µg/mL); MIC (Staphylococcus aureus): 5.59 µM (≈ 9.99 µg/mL)
CC(C)C[C@H](NC(=O)[C@H](CC(C)C)NC(=O)[C@H](CC(N)=O)NC(=O)[C@H](CCCCN)NC(=O)[C@H](CC(C)C)NC(=O)[C@H](CC(N)=O)NC(=O)[C@@H](N)C(C)C)C(=O)N[C@@H](CCCN=C(N)N)C(=O)O [VNLKNLLR]	–	–	32 µM (≈ 31 µg/mL)	–
CC(C)C[C@H](NC(=O)[C@H](Cc1ccccc1)NC(=O)[C@@H]1CCCN1C(=O)[C@H](Cc1ccc(O)cc1)NC(=O)[C@H](Cc1c[nH]c2ccccc12)NC(=O)[C@H](Cc1c[nH]c2ccccc12)NC(=O)[C@@H]1CCCN1C(=O)[C@H](Cc1ccccc1)NC(=O)[C@H](CCCN=C(N)N)NC(=O)[C@H](CCCN=C(N)N)NC(=O)[C@@H](N)C(C)C)C(=O)N[C@@H](CCCN=C(N)N)C(=O)N[C@@H](CCCN=C(N)N)C(N)=O [VRRFPWWYPFLRR]	4 µM (≈ 7.51 µg/mL)	–	–	–
NC(=O)[C@H](Cc1c[nH]c2ccccc12)NC(=O)[C@H](CCCN=C(N)N)NC(=O)[C@H](Cc1ccc(O)cc1)NC(=O)[C@H](CCCN=C(N)N)NC(=O)[C@@H](N)Cc1c[nH]c2ccccc12 [WRYRW]	115 µM (≈ 99.9 µg/mL)	57.7 µM (≈ 49.9 µg/mL)	–	–
